Experimental data published in US7868013B2, “Cycloalkyl substituted pyrimidinediamine compounds and their uses” (Rigel Pharmaceuticals, Inc., priority 2004, dated 2011).
Counter-ions that a name gives are not always drawn.

Legend:
[1] = test system: A549 (lung carcinoma); test: In vitro antiproliferation assay, A549 cells (TABLE 1 6 point assay; TABLE 2); assay type: cell-based; conditions: Homo sapiens, A549, A549 cells; 6 point assay; read-out: A549, 6pt (IC50, inhibition of proliferation)
Method: (§1) Certain compounds were tested against other cell types for their ability to inhibit proliferation in standard antiproliferation assays.

[2] = test system: H1299 (non-small cell lung carcinoma); test: In vitro antiproliferation assay, H1299 cells (TABLE 1 6 point assay; TABLE 2); assay type: cell-based; conditions: Homo sapiens, NCI-H1299, H1299 cells; 6 point assay; read-out: H1299, 6pt (IC50, inhibition of proliferation)
Method: as §1

Structure (SMILES)	IC50 [1] [nM]	IC50 [2] [nM]
Cc1cc(Nc2ncc(F)c(N[C@@H]3[C@H](C(=O)NC(C)c4ccccc4)[C@H]4C=C[C@@H]3C4)n2)ccc1N1CCN(C)CC1 (stereo partly drawn) [compound 110, (1S,2S,3R,4R)-N4-5-Fluoro-N4-(3-(R)-alpha-methylbenzylaminocarbonylbicyclo[2.2.1]hept-5-en-2-yl)-N2-[3-methyl-4-(4-methylpiperazin-1-yl)phenyl]-2,4-pyrimidinediamine]	100 to 1000	100 to 1000
Cc1ccc(Nc2ncc(F)c(N[C@H]3[C@@H](C(N)=O)[C@@H]4C=C[C@H]3C4)n2)cc1OCCN1CCOCC1 [compound 115, (1R,2R,3S,4S)-N4-(3-Aminocarbonylbicyclo[2.2.1]hept-5-en-2-yl)-5-fluoro-N2-[4-methyl-3-(2-morpholinoethyloxy)phenyl]-2,4-pyrimidinediamine]	≤ 100	≤ 100
Cc1cc(Nc2ncc(F)c(N[C@H]3[C@@H](C(N)=O)[C@@H]4C=C[C@H]3C4)n2)ccc1N1CCN(CCO)CC1 [compound 116, (1R,2R,3S,4S)-N4-(3-Aminocarbonylbicyclo[2.2.1]hept-5-en-2-yl)-5-fluoro-N2-{4-[4-(2-hydroxyethyl)piperazin-1-yl]-3-methylphenyl}-2,4-pyrimidinediamine]	≤ 100	≤ 100
Cc1cc(Nc2ncc(F)c(N[C@H]3[C@@H](C(N)=O)[C@@H]4C=C[C@H]3C4)n2)ccc1N1CCN(C)CC1 [compound 121, (1R,2R,3S,4S)-N4-(3-Aminocarbonylbicyclo[2.2.1]hept-5-ene-2-yl)-5-fluoro-N2-[3-methyl-4-(4-methylpiperazin-1-yl)phenyl]-2,4-pyrimidinediamine Adipic Acid Salt]	≤ 100	≤ 100
Cc1cc(Nc2ncc(F)c(N[C@H]3[C@@H](C(N)=O)[C@@H]4C=C[C@H]3C4)n2)ccc1N1CCN(C)CC1 [compound 122, (1R,2R,3S,4S)-N4-(3-Aminocarbonylbicyclo[2.2.1]hept-5-en-2-yl)-5-fluoro-N2-[3-methyl-4-(4-methylpiperazin-1-yl)phenyl]-2,4-pyrimidinediamine Tartaric Acid Salt]	≤ 100	≤ 100
Cc1cc(Nc2ncc(F)c(N[C@H]3[C@@H](C(N)=O)[C@@H]4C=C[C@H]3C4)n2)ccc1N(C1CC1)C1CCN(C)CC1 [compound 123, (1R,2R,3S,4S)-N4-(3-Aminocarbonylbicyclo[2.2.1]hept-5-en-2-yl)-5-fluoro-N2-{4-[N-cyclopropyl-(1-methylpiperidin-4-yl)]-3-methylphenyl}-2,4-pyrimidinediamine]	≤ 100	≤ 100
COc1ccc(C(C)NC(=O)[C@H]2[C@@H](Nc3nc(Nc4ccc(N5CCN(C)CC5)c(C)c4)ncc3F)[C@@H]3C=C[C@H]2C3)cc1 (stereo partly drawn) [compound 124, (1S,2S,3R,4R)-5-Fluoro-N4-(3-(R)-4-methoxy-alpha-methylbenzylaminocarbonylbicyclo[2.2.1]hept-5-en-2-yl]-N2-(3-methyl-4-(4-methylpiperazin-1-yl)phenyl]-2,4-pyrimidinediamine]	100 to 1000	100 to 1000
Cc1ccc(Nc2ncc(F)c(N[C@H]3[C@@H](C(N)=O)[C@@H]4C=C[C@H]3C4)n2)cc1OCC(=O)N1CCOCC1 [compound 125, (1R,2R,3S,4S)-N4-(3-Aminocarbonylbicyclo[2.2.1]hept-5-en-2-yl)-5-fluoro-N2-[4-methyl-3-(morpholin-4-ylcarbonylmethyleneoxy)phenyl]-2,4-pyrimidinediamine]	≤ 100	≤ 100
CN1CCC(c2ccc(Nc3ncc(F)c(N[C@H]4[C@@H](C(N)=O)[C@@H]5C=C[C@H]4C5)n3)cc2)CC1 [compound 137, (1R,2R,3S,4S)-N4-(3-aminocarbonylbicyclo[2.2.1]hept-5-en-2-yl)-5-fluoro-N2-[4-(1-methylpiperidin-4-yl)phenyl]-2,4-pyrimidinediamine]	≤ 100	≤ 100
CN1CCC(c2cccc(Nc3ncc(F)c(N[C@H]4[C@@H](C(N)=O)[C@@H]5C=C[C@H]4C5)n3)c2)CC1 [compound 145, (1R,2R,3S,4S)-N4-(3-Aminocarbonylbicyclo[2.2.1]hept-5-en-2-yl)-5-fluoro-N2-[3-(1-methylpiperidin-4-yl)phenyl]-2,4-pyrimidinediamine Mono- Hydrochloric Acid Salt]	≤ 100	≤ 100
CN1CCC(Oc2ccc(Nc3ncc(F)c(N[C@H]4[C@@H](C(N)=O)[C@@H]5C=C[C@H]4C5)n3)cc2)CC1 [compound 146, (1R,2R,3S,4S)-N4-(3-Aminocarbonylbicyclo[2.2.1]hept-5-en-2-yl)-5-fluoro-N2-[4-(1-methylpiperidin-4-yloxy)phenyl]-2,4-pyrimidinediamine]	≤ 100	≤ 100
NC(=O)[C@@H]1[C@H](Nc2nc(Nc3ccc(OC(F)(F)F)c(Cl)c3)ncc2F)[C@H]2C=C[C@@H]1C2 [compound 148, (1R,2R,3S,4S)-N4-(3-Aminocarbonylbicyclo[2.2.1]hept-5-en-2-yl)-N2-(3-chloro-4-trifluoromethoxyphenyl)-5-fluoro-2,4-pyrimidinediamine]	1000 to 10000	1000 to 10000
CN1CCC(Oc2cccc(Nc3ncc(F)c(N[C@H]4[C@@H](C(N)=O)[C@@H]5C=C[C@H]4C5)n3)c2)CC1 [compound 149, (1R,2R,3S,4S)-N4-(3-Aminocarbonylbicyclo[2.2.1]hept-5-en-2-yl)-5-fluoro-N2-[3-(1-methylpiperidin-4-yloxy)phenyl]-2,4-pyrimidinediamine]	≤ 100	≤ 100
Cc1cc(Nc2ncc(F)c(N[C@H]3[C@@H](C(N)=O)[C@@H]4C=C[C@H]3C4)n2)ccc1OC1CCN(C)CC1 [compound 150, (1R,2R,3S,4S)-N4-(3-Aminocarbonylbicyclo[2.2.1]hept-5-en-2-yl)-5-fluoro-N2-[3-methyl-4-(1-methylpiperidin-4-yloxy)phenyl]-2,4-pyrimidinediamine]	≤ 100	≤ 100
CN1CCC(Oc2ccc(Nc3ncc(F)c(N[C@H]4[C@@H](C(N)=O)[C@@H]5C=C[C@H]4C5)n3)cc2C(F)(F)F)CC1 [compound 151, (1R,2R,3S,4S)-N4-(3-Aminocarbonylbicyclo[2.2.1]hept-5-en-2-yl)-5-fluoro-N2-[4-(1-methylpiperidin-4-yloxy)-3-trifluoromethylphenyl)-2,4-pyrimidinediamine]	≤ 100	≤ 100
CN1CCC(Oc2ccc(Nc3ncc(F)c(N[C@H]4[C@@H](C(N)=O)[C@@H]5C=C[C@H]4C5)n3)cc2Cl)CC1 [compound 152, (1R,2R,3S,4S)-N4-(3-Aminocarbonylbicyclo[2.2.1]hept-5-en-2-yl)-N2-[3-chloro-4-(1-methylpiperidin-4-yloxy)phenyl]-5-fluoro-2,4-pyrimidinediamine]	≤ 100	≤ 100
Cc1cc(Nc2ncc(F)c(N[C@H]3[C@@H](C(N)=O)[C@@H]4C=C[C@H]3C4)n2)ccc1OCC1CCN(C)CC1 [compound 153, (1R,2R,3S,4S)-N4-(3-Aminocarbonylbicyclo[2.2.1]hept-5-en-2-yl)-5-fluoro-N2-[4-(1-methylpiperidin-4-ylmethyleneoxy)-3-methylphenyl]-2,4-pyrimidinediamine]	≤ 100	≤ 100
Cc1cc(Nc2ncc(F)c(N[C@@H]3[C@H](C(N)=O)[C@@H]4C=C[C@H]3C4)n2)ccc1N1CCN(C)CC1 [compound 154]	100 to 1000	100 to 1000
Cc1cc(Nc2ncc(F)c(N[C@H]3[C@@H](C(N)=O)[C@H]4C=C[C@@H]3C4)n2)ccc1N1CCN(C)CC1 [compound 155, (1S,2R,3S,4R)-N4-(3-Aminocarbonylbicyclo[2.2.1]hept-5-en-2-yl)-5-fluoro-N2-[3-methyl-4-(4-methylpiperazin-1-yl)phenyl]-2,4-pyrimidinediamine]	1000 to 10000	1000 to 10000
CN(C)CCN1CCc2cc(Nc3ncc(F)c(N[C@H]4[C@@H](C(N)=O)[C@@H]5C=C[C@H]4C5)n3)ccc21 [compound 186, (1R,2R,3S,4S)-N4-[3-Aminocarbonylbicyclo[2.2.1]hept-5-en-2-yl]-N2-[1-(2-dimethylaminoethyl)-2,3-dihydroindol-5-yl]-5-fluoro-2,4-pyrimidinediamine]	≤ 100	≤ 100
CN(C)CCN1CCc2cc(Nc3ncc(F)c(N[C@@H]4[C@H](C(N)=O)[C@H]5C=C[C@@H]4C5)n3)ccc21 [compound 187, (1S,2S,3R,4R)-N4-[3-Aminocarbonylbicyclo[2.2.1]hept-5-en-2-yl]-N2-[1-(2-dimethylaminoethyl)-2,3-dihydroindol-5-yl]-5-fluoro-2,4-pyrimidinediamine]	1000 to 10000	1000 to 10000
CS(=O)(=O)N1CCc2cc(Nc3ncc(F)c(N[C@H]4[C@@H](C(N)=O)[C@@H]5C=C[C@H]4C5)n3)ccc21 [compound 188, (1R,2R,3S,4S)-N4-(3-Aminocarbonylbicyclo[2.2.1]hept-5-en-2-yl)-5-fluoro-N2-[1-methylsulfonyl-2,3-dihydro-indol-5-yl]-2,4-pyrimidinediamine]	≤ 100	≤ 100
CN(C)CCN1CCOc2cc(Nc3ncc(F)c(N[C@H]4[C@@H](C(N)=O)[C@@H]5C=C[C@H]4C5)n3)ccc21 [compound 189, (1R,2R,3S,4S)-N4-(3-Aminocarbonylbicyclo[2.2.1]hept-5-en-2-yl)-5-fluoro-N2-(1-[2-(dimethylamino)ethyl]-3,4-dihydro-4H-benz[1,4]oxazin-6-yl}-2,4-pyrimidinediamine]	≤ 100	≤ 100
Cc1cc(Nc2ncc(F)c(N[C@@H]3[C@H](C(=O)NC4CC4)[C@H]4C=C[C@@H]3C4)n2)ccc1N1CCN(C)CC1 [compound 191, (1S,2S,3R,4R)-N4-[3-(N-Cyclopropyl)aminocarbonylbicyclo[2.2.1]hept-5-en-2-yl]-5-fluoro-N2-[3-methyl-4-(4-methylpiperazin-1-yl)phenyl]-2,4-pyrimidinediamine]	100 to 1000	1000 to 10000
